Data: patent US9999222B2, “Herbicidal combination comprising azines” (BASF SE, priority 2014, dated 2018)
Several values for one entry are separate records, joined by “and”; a condition that tells them apart may be missing. Identical values can stand only once. Like-named read-outs stand apart in the source and are kept apart here.

Tests used:
Assay in all cases: Greenhouse test, pre-emergence treatment
ALOMY = assay type: in vivo, Alopecurus myosuroides; details: Alopecurus myosuroides, pre-emergence, 480 h
Description: (§1) The culture containers used were plastic flowerpots containing loamy sand with approximately 3.0% of humus as the substrate. The seeds of the test plants were sown separately for each species.
(§2) For the pre-emergence treatment, the active ingredients, which had been suspended or emulsified in water, were applied directly after sowing by means of finely distributing nozzles. The containers were irrigated gently to promote germination and growth and subsequently covered with transparent plastic hoods until the plants had rooted. This cover caused uniform germination of the test plants, unless this had been impaired by the active ingredients.
(§3) Depending on the species, the plants were kept at 10-25° C. or 20-35° C., respectively.
(§4) The test period extended over 2 to 4 weeks. During this time, the plants were tended, and their response to the individual treatments was evaluated.
(§5) Evaluation was carried out using a scale from 0 to 100. 100 means no emergence of the plants, or complete destruction of at least the aerial moieties, and 0 means no damage, or normal course of growth. A moderate herbicidal activity is given at values of at least 60, a good herbicidal activity is given at values of at least 70, and a very good herbicidal activity is given at values of at least 85.
(§6) The respective stated components a and b, and if appropriate, c were formulated as a 10% by weight strength emulsion concentrate and, with addition of the amount of solvent system, introduced into the spray liquor used for applying the active compound.
(§7) In the examples, the solvent used was water.
(§8) In the examples below, using the method of S. R. Colby (1967) “Calculating synergistic and antagonistic responses of herbicide combinations”, Weeds 15, p. 22ff., the value E, which is expected if the activity of the individual active compounds is only additive, was calculated. E=X+Y−(X·Y/100) where • X=percent activity using active compound a at an application rate A; • Y=percent activity using active compound b at an application rate B; • E=expected activity (in %) by a+b at application rates A+B.
(§9) If the value found experimentally is higher than the value E calculated according to Colby, a synergistic effect is present.

ABUTH = assay type: in vivo, Abutilon theophrasti; details: Abutilon theophrasti, 480 h
Description: as §1, §2, §3, §4, §5, §6, §7, §8, §9

POLCO = assay type: in vivo, Polygonum convolvulus; details: pre-emergence
Description: as §1, §2, §3, §4, §5, §6, §7, §8, §9

COMBE = assay type: in vivo, Commelina benghalensis; details: Commelina benghalensis, pre-emergence, 480 h
Description: as §1, §2, §3, §4, §5, §6, §7, §8, §9

EPHHL = assay type: in vivo, Euphorbia heterophylla; details: pre-emergence
Description: as §1, §2, §3, §4, §5, §6, §7, §8, §9

GALAP = assay type: in vivo, Galium aparine; details: pre-emergence
Description: as §1, §2, §3, §4, §5, §6, §7, §8, §9

GERPU = assay type: in vivo, Geranium pusillum; details: Geranium pusillum, pre-emergence, 480 h
Description: as §1, §2, §3, §4, §5, §6, §7, §8, §9

KCHSC = assay type: in vivo, Kochia scoparia; details: pre-emergence
Description: as §1, §2, §3, §4, §5, §6, §7, §8, §9

IPOHE = assay type: in vivo, Ipomoea hederacea; details: Ipomoea hederacea, 480 h
Description: as §1, §2, §3, §4, §5, §6, §7, §8, §9

SIDRH = assay type: in vivo, Sida rhombifolia; details: Sida rhombifolia, pre-emergence, 480 h
Description: as §1, §2, §3, §4, §5, §6, §7, §8, §9

CENCY = assay type: in vivo; details: 480 h, individual, read-out: observed % activity 20 DAT
SETFA = assay type: in vivo, Setaria faberi; details: SETFA, use rate 25 g ai/ha, 20 DAT
Description: as §1, §2, §3, §4, §5, §6, §7, §8, §9

ANTAR = assay type: in vivo; details: Anthemis arvensis, 480 h, 20 DAT, read-out: observed % activity
Description: as §1, §2, §3, §4, §5, §6, §7, §8, §9

[1] = 375 g ai/ha, 20 DAT, read-out: observed % activity
[2] = 750 g ai/ha, 20 DAT, read-out: observed % activity
[3] = 15 g ai/ha, read-out: observed % activity 20 DAT
[4] = 20 g ai/ha, 20 DAT, read-out: observed % activity
[5] = 30 g ai/ha, read-out: observed % activity 20 DAT
[6] = 40 g ai/ha, 20 DAT, read-out: observed % activity

O=C(O)CNCP(=O)(O)O [Glyphosate, glyphosate]
inhibition at 125 g/ha (ALOMY; read-out: observed % activity 20 DAT): 0%

CC(C)c1ccc(NC(=O)N(C)C)cc1 [Isoproturon, isoproturon]
inhibition at 375 g/ha (ABUTH; [1]): 20%
inhibition at 750 g/ha (ABUTH; [2]): 65%
inhibition at 250 g/ha (ABUTH; ABUTH, individual, use rate 250 g ai/ha, read-out: observed % activity 20 DAT): 50%
inhibition at 500 g/ha (ABUTH; ABUTH, individual, use rate 500 g ai/ha, read-out: observed % activity 20 DAT): 15%
inhibition at 375 g/ha (POLCO; Fallopia convolvulus, 480 h, 375 g ai/ha, 20 DAT, read-out: observed % activity): 0%
inhibition at 750 g/ha (POLCO; Fallopia convolvulus, 480 h, 750 g ai/ha, 20 DAT, read-out: observed % activity): 25%
inhibition at 250 g/ha (POLCO; Fallopia convolvulus, 480 h, POLCO, individual, use rate 250 g ai/ha, read-out: observed % activity 20 DAT): 10%
inhibition at 375 g/ha (COMBE; [1]): 0%
inhibition at 750 g/ha (COMBE; [2]): 45%
inhibition at 250 g/ha (COMBE; COMBE, individual, use rate 250 g ai/ha, read-out: observed % activity 20 DAT): 0%
inhibition at 500 g/ha (COMBE; COMBE, individual, use rate 500 g ai/ha, read-out: observed % activity 20 DAT): 10%
observed % activity 20 DAT (EPHHL; EPHHL, individual, use rate 250 g ai/ha): 10% and 25%
inhibition at 500 g/ha (EPHHL; Euphorbia heterophylla, 480 h, EPHHL, individual, use rate 500 g ai/ha, read-out: observed % activity 20 DAT): 35%
observed % activity 20 DAT (GALAP; GALAP, individual, use rate 500 g ai/ha): 65% and 15%
inhibition at 250 g/ha (GALAP; Galium aparine, 480 h, GALAP, individual, use rate 250 g ai/ha, read-out: observed % activity 20 DAT): 30%
inhibition at 375 g/ha (GERPU; [1]): 20%
inhibition at 750 g/ha (GERPU; [2]): 40%
inhibition at 500 g/ha (GERPU; GERPU, individual, use rate 500 g ai/ha, read-out: observed % activity 20 DAT): 0%
inhibition at 750 g/ha (KCHSC; Bassia scoparia, 480 h, 750 g ai/ha, 20 DAT, read-out: observed % activity): 98%
inhibition at 250 g/ha (KCHSC; Bassia scoparia, 480 h, KCHSC, individual, use rate 250 g ai/ha, read-out: observed % activity 20 DAT): 98%
inhibition at 500 g/ha (KCHSC; Bassia scoparia, 480 h, KCHSC, individual, use rate 500 g ai/ha, read-out: observed % activity 20 DAT): 98%
inhibition at 750 g/ha (IPOHE; [2]): 40%
inhibition at 375 g/ha (SIDRH; [1]): 0%
inhibition at 250 g/ha (SIDRH; SIDRH, individual, use rate 250 g ai/ha, read-out: observed % activity 20 DAT): 0%
inhibition at 500 g/ha (SIDRH; SIDRH, individual, use rate 500 g ai/ha, read-out: observed % activity 20 DAT): 40%
inhibition at 250 g/ha (CENCY; use rate 250 g ai/ha): 30%
inhibition at 500 g/ha (CENCY; use rate 500 g ai/ha): 30%

O=C(Nc1ccc(F)cc1)c1cccc(Oc2cccc(C(F)(F)F)c2)n1 [Picolinafen, picolinafen]
observed % activity 20 DAT (POLCO; POLCO, use rate 25 g ai/ha, 20 DAT): 0%
observed % activity 20 DAT (POLCO; POLCO, use rate 50 g ai/ha, 20 DAT): 0%
observed % activity 20 DAT (SETFA): 10%
observed % activity 20 DAT (KCHSC; KCHSC, use rate 50 g ai/ha, 20 DAT): 30%

CCOCN(C(=O)CCl)c1c(C)cccc1CC [acetochlor]
inhibition at 125 g/ha (ALOMY; 125 g ai/ha, 20 DAT, read-out: observed % activity): 0%
inhibition at 125 g/ha (GALAP; Galium aparine, 480 h, 125 g ai/ha, 20 DAT, read-out: observed % activity): 60%
inhibition at 125 g/ha (KCHSC; Bassia scoparia, 480 h, 125 g ai/ha, 20 DAT, read-out: observed % activity): 0%

CCc1cnc(C2=NC(C)(C(C)C)C(=O)N2)c(C(=O)O)c1 (stereo not shown) [imazethapyr]
inhibition at 15 g/ha (ABUTH; [3]): 0%
inhibition at 20 g/ha (ABUTH; [4]): 60%
inhibition at 30 g/ha (ABUTH; [5]): 15%
inhibition at 40 g/ha (ABUTH; [6]): 80%
inhibition at 20 g/ha (POLCO; Fallopia convolvulus, 480 h, 20 g ai/ha, 20 DAT, read-out: observed % activity): 35%
inhibition at 40 g/ha (POLCO; Fallopia convolvulus, 480 h, 40 g ai/ha, 20 DAT, read-out: observed % activity): 90%
inhibition at 15 g/ha (POLCO; Fallopia convolvulus, 480 h, 15 g ai/ha, read-out: observed % activity 20 DAT): 30%
inhibition at 30 g/ha (POLCO; Fallopia convolvulus, 480 h, 30 g ai/ha, read-out: observed % activity 20 DAT): 65%
observed % activity 20 DAT (POLCO; 30 g ai/ha): 60%
inhibition at 20 g/ha (ANTAR; 20 g ai/ha): 30%
inhibition at 40 g/ha (ANTAR; 40 g ai/ha): 30%
inhibition at 20 g/ha (COMBE; [4]): 45%
inhibition at 40 g/ha (COMBE; [6]): 65%
inhibition at 15 g/ha (COMBE; [3]): 0%
inhibition at 30 g/ha (COMBE; [5]): 35%
inhibition at 30 g/ha (EPHHL; Euphorbia heterophylla, 480 h, 30 g ai/ha, read-out: observed % activity 20 DAT): 65%
inhibition at 15 g/ha (GALAP; Galium aparine, 480 h, 15 g ai/ha, read-out: observed % activity 20 DAT): 50%
inhibition at 30 g/ha (GALAP; Galium aparine, 480 h, 30 g ai/ha, read-out: observed % activity 20 DAT): 60%
inhibition at 20 g/ha (GERPU; [4]): 20%
inhibition at 40 g/ha (GERPU; [6]): 85%
inhibition at 15 g/ha (GERPU; [3]): 30%
inhibition at 30 g/ha (GERPU; [5]): 30%
inhibition at 15 g/ha (KCHSC; Bassia scoparia, 480 h, 15 g ai/ha, read-out: observed % activity 20 DAT): 70%
inhibition at 30 g/ha (KCHSC; Bassia scoparia, 480 h, 30 g ai/ha, read-out: observed % activity 20 DAT): 85%
inhibition at 30 g/ha (IPOHE; [5]): 0%
inhibition at 20 g/ha (SIDRH; [4]): 45%
inhibition at 40 g/ha (SIDRH; [6]): 80%
inhibition at 15 g/ha (SIDRH; [3]): 15%
inhibition at 30 g/ha (SIDRH; [5]): 60%
